22 compounds from patent US7713994B2 (Wyeth LLC, priority 2005, dated 2010) can be followed below.

Assay [1] deals with MCF-7. As to the kind of experiment: Cytotoxicity assay (SRB), MCF-7. The assay is classed as cell-based. The note with it: Homo sapiens, MCF7, 72 h, read-out: In Vitro Cellular Activity IC50 MCF-7. The method, then:
(§1) BT474, HCT-116, LoVo and MCF-7 were maintained under 7% CO2 in RPMI 1640 medium supplemented with 10% fetal bovine serum and 50 µg/ml gentamicin.
(§2) Cells were plated in 96-well microtiter dishes (12000 cells/well for BT474, 4000 cells/well for HCT-116, 6000 cells/well for LoVo and 6000 cells/well for MCF-7) in RPMI 1640 medium containing 5% fetal bovine serum and 50 µg/ml gentamicin. The cells were allowed to incubate overnight at 37° C., 7% CO2. Compound dilutions were prepared using the same medium. HCT-116, LoVo and MCF-7 cells were cultured for three days and BT474 cells were cultured for 6 days, in the presence of each compound dilution. Untreated cells were included as controls. The percentage of surviving cells was determined using a protein binding dye (sulforhodamineB, SRB) assay. Cellular protein was precipitated in each well by the addition of 0.05 ml of 50% cold trichloroacetic acid (TCA). After 1 hour, the plates were washed extensively in dH2O and dried. The sulforhodamineB dye solution (0.08 mL of 0.4% SRB in 1% acetic acid) was added to each well, kept at room temperature for ten minutes, then washed in 1% acetic acid and dried. The dye was dissolved in 10 mM Tris-HCl (150 uL) and the absorbency read at 540 nm.

In assay [2] the test system is BT474. As to the kind of experiment: Cytotoxicity assay (SRB), BT474. The class given is cell-based. The note with it: Homo sapiens, BT-474, 144 h, read-out: In Vitro Cellular Activity IC50 BT474. As to the method:
as §1, §2

The test system of assay [3] is LoVo. As to the kind of experiment: Cytotoxicity assay (SRB), LoVo. The assay is classed as cell-based. The note with it: Homo sapiens, LoVo, 72 h, read-out: In Vitro Cellular Activity IC50 LOVO. As to the method:
as §1, §2

Assay [4] has as its system HCT-116. As to the kind of experiment: Cytotoxicity assay (SRB), HCT-116. The class given is cell-based. The note with it: Homo sapiens, HCT-116, 72 h, read-out: In Vitro Cellular Activity IC50 HCT116. As to the method: as §1, §2
Assay [5] has as its target T1, cyclin D1/cdk 4 enzyme (Homo sapiens, UniProt P11802).
T1 construct: made in house; host or cells: Sf9 insect cells, recombinant baculovirus
As to the kind of experiment: CDK4 ELISA kinase assay (phospho-Rb ser 795 detection). The class given is biochemical. The note with it: In Vitro Enzyme Assay, cyclin D1/cdk 4, read-out: CDK4 IC50. An outline of the steps:
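GST-Rb C-terminal fragment coated on plates; partially purified Sf9-expressed cyclin D1/CDK4, cyclin E/CDK2 or cyclin B/CDK1 with 200 μM ATP, pH 7.5 HEPES/MgCl2 buffer, 1 h at 30 °C; screen compound final 10 μg/ml. Phospho-Rb Ser795 detected by antibody ELISA (TMB, A450); % of control, IC50 from background-subtracted inhibition curves.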
In general terms: In an ELISA, binding on a coated surface is turned into a signal by an enzyme label.

Like-named read-outs stand apart in the source and are kept apart here. A value given as a limit tells only on which side of the number the result lay.

T1 sequence (P11802 whole entry, species assumed): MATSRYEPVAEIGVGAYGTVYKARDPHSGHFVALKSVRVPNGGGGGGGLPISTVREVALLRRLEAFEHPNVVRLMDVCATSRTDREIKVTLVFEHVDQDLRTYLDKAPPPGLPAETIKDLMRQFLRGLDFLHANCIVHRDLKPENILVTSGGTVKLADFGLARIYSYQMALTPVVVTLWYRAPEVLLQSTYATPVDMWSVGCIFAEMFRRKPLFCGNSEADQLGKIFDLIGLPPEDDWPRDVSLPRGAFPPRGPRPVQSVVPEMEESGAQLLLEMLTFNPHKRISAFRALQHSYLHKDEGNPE
T1 sequence (P24385 whole entry partner, species assumed): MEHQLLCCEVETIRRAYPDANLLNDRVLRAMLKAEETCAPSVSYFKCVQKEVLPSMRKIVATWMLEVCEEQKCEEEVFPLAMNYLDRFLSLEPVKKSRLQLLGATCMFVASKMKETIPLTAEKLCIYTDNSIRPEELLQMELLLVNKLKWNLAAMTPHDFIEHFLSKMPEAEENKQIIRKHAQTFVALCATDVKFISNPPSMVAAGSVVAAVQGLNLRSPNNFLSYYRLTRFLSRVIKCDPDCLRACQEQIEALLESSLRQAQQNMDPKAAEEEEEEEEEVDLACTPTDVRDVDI

As usually defined, the IC50 is the concentration that inhibits the measured activity by half. Turning to `CCCCN(C)CCN(C)c1ccc(NC=C2C(=O)NC(=O)c3ccc(Br)cc32)cc1` (stereo in doubt) [Example 257, (4Z)-6-Bromo-4-[({4-[{2-[butyl(methyl)amino]ethyl}(methyl)amino]phenyl}amino)methylene]isoquinoline-1,3(2H,4H)-dione], the IC50 amounted to 3.6 µM in assay [1] (MCF-7 cells, SRB, three days); 6.5 µM in assay [2] (BT474 cells, SRB, 6 days); 4.7 µM in assay [3] (LoVo cells, SRB, three days); 2.5 µM in assay [4] (HCT116 cells, SRB, three days).
For the compound `CCCCN(C)CCN(C)c1ccc(NC=C2C(=O)NC(=O)c3ccc(Br)cc32)cc1` (stereo in doubt) [Example 866, (4Z)-6-Bromo-4-[({4-[{2-[butyl(methyl)amino]ethyl}(methyl)amino]phenyl}amino)methylene]isoquinoline-1,3(2H,4H)-dione], the IC50 in assay [1] (MCF-7 cells, 3 days, SRB) is 3.6 µM; in assay [2] (BT474 cells, 6 days, SRB), 6.5 µM; in assay [3] (LoVo cells, 3 days, SRB) it was 4.7 µM; in assay [4] (HCT116 cells, 3 days, SRB) it was 2.5 µM.
Consider `CN(CCN1CCOCC1)c1ccc(NC=C2C(=O)NC(=O)c3ccc(Br)cc32)cc1` (stereo in doubt) [Example 871, (4Z)-6-Bromo-4-[({4-[methyl(2-morpholin-4-ylethyl)amino]phenyl}amino)methylene]isoquinoline-1,3(2H,4H)-dione], for which the IC50 in assay [1] (MCF-7 cells, 3 days, SRB) is 29.1 µM; in assay [2] (BT474 cells, 6 days, SRB), above 50 µM; in assay [3] (LoVo cells, 3 days, SRB) it was 46.6 µM; in assay [4] (HCT116 cells, 3 days, SRB) it was 13.9 µM.
As for `CN1C(=O)/C(=C\Nc2ccc(CN3CCCCC3)cc2)c2ccccc2C1=O` [Example 49, (4Z)-2-Methyl-4-{[(4-piperidin-1-ylmethyl)phenyl]amino}methyleneisoquinoline-1,3(2H,4H)-dione], the IC50 in assay [1] turned out to be 13 µM; in assay [2], 6.85 µM; in assay [3], 11.5 µM; in assay [4], 5.5 µM.
On to `O=C1NC(=O)c2ccc(Br)cc2/C1=C/NCc1ccc2cc[nH]c2c1` [Example 129, (4Z)-6-Bromo-4-{[(1H-indol-6-ylmethyl)amino]methylene}isoquinoline-1,3(2H,4H)-dione], for which the IC50 in assay [1] (MCF-7 cells, SRB, three days) was 39 µM; in assay [2] (BT474 cells, SRB, 6 days) it was 30 µM; in assay [3] (LoVo cells, SRB, three days) it was above 50 µM; in assay [4] (HCT116 cells, SRB, three days), 26 µM.
In the same order, the values of `COc1ccc(CN/C(C)=C2\C(=O)NC(=O)CC2c2ccccc2)cc1O` (stereo not shown) [Example 140, (3Z)-3-{1-[(3-hydroxy-4-methoxybenzyl)amino]ethylidene}-4-phenylpiperidine-2,6-dione] are above 50 µM, 30 µM, above 50 µM and above 50 µM.
In the same order, the values of `O=C1NC(=O)c2ccc(Br)cc2/C1=C/NCc1ccc(OCCOCc2ccccc2)c(O)c1` [Example 159] are above 50 µM, 25 µM, 18 µM and 16 µM.
For `COc1ccc(CN/C=C2\C(=O)N(C(C)=O)N(C(C)=O)c3ccccc32)cc1O` [Example 167, (4Z)-1,2-Diacetyl-4-{[(3-hydroxy-4-methoxybenzyl)amino]methylene}-1,4-dihydrocinnolin-3(2H)-one], the IC50 in assay [1] (MCF-7 cells, SRB, three days) worked out at 13 µM; in assay [2] (BT474 cells, SRB, 6 days), 9.6 µM; in assay [3] (LoVo cells, SRB, three days), 12 µM; in assay [4] (HCT116 cells, SRB, three days), 11 µM.
In the same order, the values of `O=C1NC(=O)c2ccc(Br)cc2/C1=C/NCc1ccccc1O` [Example 174, (4Z)-6-Bromo-4-{[(2-hydroxybenzyl)amino]methylene}isoquinoline-1,3(2H,4H)-dione] are 50 µM, 30 µM, 35 µM and 19 µM.
In the same order, the values of `COc1ccc(CN/C=C2\C(=O)NC(=O)c3ccc(Br)cc32)cc1F` [Example 181, (4Z)-6-Bromo-4-{[(3-fluoro-4-methoxybenzyl)amino]methylene}isoquinoline-1,3(2H,4H)-dione] are above 50 µM, above 50 µM, above 50 µM and 16 µM.
In the same order, the values of `CN1CCN(c2ccc(N/C=C3\C(=O)NCc4ccc(Br)cc43)cc2)CC1` [Example 223, (4Z)-6-Bromo-4-({[4-(4-methylpiperazin-1-yl)phenyl]amino}methylene)-1,4-dihydroisoquinolin-3(2H)-one] are 3.2 µM, 8.7 µM, 2.8 µM and 4.1 µM.
Consider `O=C1NC(=O)c2ccc(Br)cc2/C1=C/Nc1ccc2ncccc2c1` [Example 271, (4Z)-6-Bromo-4-[(quinolin-6-ylamino)methylene]isoquinoline-1,3(2H,4H)-dione], for which the IC50 in assay [1] (MCF-7 cells, SRB, three days) was 39 µM; in assay [2] (BT474 cells, SRB, 6 days), 32 µM; in assay [3] (LoVo cells, SRB, three days) it was above 50 µM; in assay [4] (HCT116 cells, SRB, three days) it was 46 µM.
For `CN1CCN(c2ccc(NC=C3C(=O)NC(=O)c4ccc(-c5ccc6c(c5)OCO6)cc43)cc2)CC1` [Example 806, 6-Benzo[1,3]dioxol-5-yl-4-{[4-(4-methyl-piperazin-1-yl)-phenylamino]-methylene}-4H-isoquinoline-1,3-dione], in assay [5], the IC50 amounted to 2.1 µM.
Still for that read-out and setting: the figure for `CN1CCN(c2ccc(NC=C3C(=O)NC(=O)c4ccc(-c5ccc(N(C)C)cc5)cc43)cc2)CC1` [Example 807, 6-(4-Dimethylamino-phenyl)-4-{[4-(4-methyl-piperazin-1-yl)-phenylamino]-methylene}-4H-isoquinoline-1,3-dione] is 14.5 µM; for `CN1CCN(c2ccc(NC=C3C(=O)NC(=O)c4ccc(-c5ccc(CCC(=O)O)cc5)cc43)cc2)CC1` [Example 809, 3-[4-(4-{[4-(4-Methyl-piperazin-1-yl)-phenylamino]-methylene}-1,3-dioxo-1,2,3,4-tetrahydro-isoquinolin-6-yl)-phenyl]-propionic acid] it is 13.8 µM.
On the same count and under the same terms, the figure for `CN1CCN(c2ccc(NC=C3C(=O)NC(=O)c4ccc(-c5cccc(N)c5)cc43)cc2)CC1` [Example 810, 6-(3-Amino-phenyl)-4-{[4-(4-methyl-piperazin-1-yl)-phenylamino]-methylene}-4H-isoquinoline-1,3-dione] is 2.76 µM; for `CN1CCN(c2ccc(NC=C3C(=O)NC(=O)c4ccc(-c5ccc(Cl)cc5Cl)cc43)cc2)CC1` [Example 811, 6-(2,4-Dichloro-phenyl)-4-{[4-(4-methyl-piperazin-1-yl)-phenylamino]-methylene}-4H-isoquinoline-1,3-dione] it is 22.3 µM.
Still for that read-out and setting: the figure for `COc1ccc(-c2ccc3c(c2)C(=CNCc2ccc(O)c(O)c2)C(=O)NC3=O)c(OC)c1` [Example 814, 4-[(3,4-Dihydroxy-benzylamino)-methylene]-6-(2,4-dimethoxy-phenyl)-4H-isoquinoline-1,3-dione] is 2.75 µM; for `COc1cc(-c2ccc3c(c2)C(=CNCc2ccc(O)c(O)c2)C(=O)NC3=O)cc(OC)c1OC` [Example 815, 4-[(3,4-Dihydroxy-benzylamino)-methylene]-6-(3,4,5-trimethoxy-phenyl)-4H-isoquinoline-1,3-dione] it is 2.5 µM.
Consider `CN1CCN(c2ccc(NC=C3C(=O)NC(=O)c4ccc(C=C5CCCC5)cc43)cc2)CC1` [Example 828, 6-Cyclopentylidenemethyl-4-{[4-(4-methyl-piperazin-1-yl)-phenylamino]-methylene}-4H-isoquinoline-1,3-dione], for which, in assay [5], the IC50 was 4.4 µM.
Still for that read-out and setting: the figure for `CN1CCN(c2ccc(NC=C3C(=O)NC(=O)c4ccc(C=Cc5ccc([N+](=O)[O-])cc5)cc43)cc2)CC1` [Example 829, 4-{[4-(4-Methyl-piperazin-1-yl)-phenylamino]-methylene}-6-[2-(4-nitro-phenyl)-vinyl]-4H-isoquinoline-1,3-dione] is 26.5 µM; for `COc1ccc(NC=C2C(=O)NCc3cc(Br)ccc32)cc1O` [Example 862, 7-Bromo-4-[(3-hydroxy-4-methoxy-phenylamino)-methylene]-1,4-dihydro-2H-isoquinolin-3-one] it is 31 µM.
